From the kinase profiling compilation of Christmann-Franck et al. (2016)

Legend:
Test in all cases: radiometric filter-binding kinase assay, Kinase HotSpot
Conditions in all cases: compound 0.5 µM; ATP 10 µM
[1] = target: RPS6KA5 KD2 (human) (UniProt O75582)
[2] = target: HIPK1 (human) (UniProt Q86Z02)
[3] = target: ADRBK2 (human) (UniProt P35626)
[4] = target: NEK11 (human) (UniProt Q8NG66)
[5] = target: PKN1 (human) (UniProt Q16512)
[6] = target: VRK1 (human) (UniProt Q99986)
[7] = target: NEK9 (human) (UniProt Q8TD19)
[8] = target: YES1 (human) (UniProt P07947)
[9] = target: DAPK3 (human) (UniProt O43293)
[10] = target: CHUK (human) (UniProt O15111)
[11] = target: GRK5 (human) (UniProt P34947)
[12] = target: CAMK4 (human) (UniProt Q16566)
[13] = target: MATK (human) (UniProt P42679)
[14] = target: SRPK1 (human) (UniProt Q96SB4)
[15] = target: TNK2 (human) (UniProt Q07912)
[16] = target: WEE1 (human) (UniProt P30291)
[17] = target: MAP3K9 (human) (UniProt P80192)
[18] = target: MAPK1 (human) (UniProt P28482)
[19] = target: TYK2 JH1 catalytic (human) (UniProt P29597)
[20] = target: NEK4 (human) (UniProt P51957)
[21] = target: PRKG2 (human) (UniProt Q13237)
[22] = target: NEK6 (human) (UniProt Q9HC98)
[23] = target: EPHB4 (human) (UniProt P54760)
[24] = target: TSSK2 (human) (UniProt Q96PF2)
[25] = target: MAPKAPK5 (human) (UniProt Q8IW41)
[26] = target: CDK5 CDK5R1 p35 (human) (UniProt Q00535+Q15078)
[27] = target: CSK (human) (UniProt P41240)
[28] = target: MAP2K2 (human) (UniProt P36507)
[29] = target: PDGFRB (human) (UniProt P09619)
[30] = target: PDGFRA (human) (UniProt P16234)
[31] = target: PAK2 (human) (UniProt Q13177)
[32] = target: PRKCE (human) (UniProt Q02156)
[33] = target: JAK1 JH1 catalytic (human) (UniProt P23458)
[34] = target: BTK (human) (UniProt Q06187)
[35] = target: NEK3 (human) (UniProt P51956)
[36] = target: SIK2 (human) (UniProt Q9H0K1)
[37] = target: MAPK11 (human) (UniProt Q15759)
[38] = target: ITK (human) (UniProt Q08881)
[39] = target: GSG2 (human) (UniProt Q8TF76)
[40] = target: INSRR (human) (UniProt P14616)
[41] = target: TEC (human) (UniProt P42680)
[42] = target: AURKA (human) (UniProt O14965)

Chain of ADRBK2 (human) (P35626 whole entry, looked up): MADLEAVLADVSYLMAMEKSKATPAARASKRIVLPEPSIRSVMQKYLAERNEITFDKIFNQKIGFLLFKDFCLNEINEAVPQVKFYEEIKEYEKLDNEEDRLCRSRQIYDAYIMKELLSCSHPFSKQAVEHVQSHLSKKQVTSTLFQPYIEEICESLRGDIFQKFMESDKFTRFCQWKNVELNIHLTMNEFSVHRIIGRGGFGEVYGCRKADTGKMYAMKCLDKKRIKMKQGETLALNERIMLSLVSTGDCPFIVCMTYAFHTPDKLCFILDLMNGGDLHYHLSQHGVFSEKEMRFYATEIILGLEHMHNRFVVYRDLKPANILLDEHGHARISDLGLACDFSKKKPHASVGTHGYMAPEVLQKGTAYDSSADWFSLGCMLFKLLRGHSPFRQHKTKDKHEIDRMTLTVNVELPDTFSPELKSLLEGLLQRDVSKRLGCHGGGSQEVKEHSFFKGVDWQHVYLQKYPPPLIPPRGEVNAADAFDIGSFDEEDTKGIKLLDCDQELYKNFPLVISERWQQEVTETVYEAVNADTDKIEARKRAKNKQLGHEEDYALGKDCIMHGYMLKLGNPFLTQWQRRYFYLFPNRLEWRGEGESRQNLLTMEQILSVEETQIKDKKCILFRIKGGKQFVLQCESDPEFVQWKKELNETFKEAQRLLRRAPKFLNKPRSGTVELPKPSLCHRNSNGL
Chain of YES1 (human) (P07947 whole entry, looked up): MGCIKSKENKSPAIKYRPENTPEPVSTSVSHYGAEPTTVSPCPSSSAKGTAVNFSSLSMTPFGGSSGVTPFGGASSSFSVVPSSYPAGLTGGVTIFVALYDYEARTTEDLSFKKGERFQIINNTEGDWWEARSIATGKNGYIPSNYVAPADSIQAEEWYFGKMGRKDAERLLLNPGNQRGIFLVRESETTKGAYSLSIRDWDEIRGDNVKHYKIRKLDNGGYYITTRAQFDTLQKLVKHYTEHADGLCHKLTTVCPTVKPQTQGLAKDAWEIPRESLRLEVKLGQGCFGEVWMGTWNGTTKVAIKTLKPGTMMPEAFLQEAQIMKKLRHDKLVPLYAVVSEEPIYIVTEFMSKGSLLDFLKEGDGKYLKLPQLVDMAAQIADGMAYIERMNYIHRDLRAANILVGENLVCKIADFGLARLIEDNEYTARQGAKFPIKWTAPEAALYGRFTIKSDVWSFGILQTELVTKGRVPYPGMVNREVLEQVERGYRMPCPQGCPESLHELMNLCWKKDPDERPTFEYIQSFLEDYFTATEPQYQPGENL
Chain of PKN1 (human) (Q16512 whole entry, looked up): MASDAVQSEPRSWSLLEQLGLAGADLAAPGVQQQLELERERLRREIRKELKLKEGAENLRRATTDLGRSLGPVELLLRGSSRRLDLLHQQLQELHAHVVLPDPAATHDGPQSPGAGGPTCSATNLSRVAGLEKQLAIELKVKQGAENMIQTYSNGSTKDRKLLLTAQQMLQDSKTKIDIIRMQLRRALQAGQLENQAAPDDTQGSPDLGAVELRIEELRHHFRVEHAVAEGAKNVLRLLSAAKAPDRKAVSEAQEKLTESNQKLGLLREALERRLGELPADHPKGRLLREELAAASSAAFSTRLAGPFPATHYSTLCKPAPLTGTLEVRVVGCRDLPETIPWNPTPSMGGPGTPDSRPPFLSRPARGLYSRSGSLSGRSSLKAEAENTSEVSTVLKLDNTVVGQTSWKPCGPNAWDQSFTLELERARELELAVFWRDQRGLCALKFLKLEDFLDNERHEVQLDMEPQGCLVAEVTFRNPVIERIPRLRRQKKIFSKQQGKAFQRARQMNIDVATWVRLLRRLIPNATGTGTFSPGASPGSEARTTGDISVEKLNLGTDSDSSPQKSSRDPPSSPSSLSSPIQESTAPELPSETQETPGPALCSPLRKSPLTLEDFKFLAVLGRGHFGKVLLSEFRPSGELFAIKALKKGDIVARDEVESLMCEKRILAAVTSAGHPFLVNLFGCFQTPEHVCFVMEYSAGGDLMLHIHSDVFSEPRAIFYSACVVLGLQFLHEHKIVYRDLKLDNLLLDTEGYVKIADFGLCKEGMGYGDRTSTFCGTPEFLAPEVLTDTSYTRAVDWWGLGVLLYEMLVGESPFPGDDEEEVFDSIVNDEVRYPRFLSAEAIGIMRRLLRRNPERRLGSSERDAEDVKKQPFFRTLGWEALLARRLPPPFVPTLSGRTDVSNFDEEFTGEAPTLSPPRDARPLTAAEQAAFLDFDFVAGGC
Chain of INSRR (human) (P14616 whole entry, looked up): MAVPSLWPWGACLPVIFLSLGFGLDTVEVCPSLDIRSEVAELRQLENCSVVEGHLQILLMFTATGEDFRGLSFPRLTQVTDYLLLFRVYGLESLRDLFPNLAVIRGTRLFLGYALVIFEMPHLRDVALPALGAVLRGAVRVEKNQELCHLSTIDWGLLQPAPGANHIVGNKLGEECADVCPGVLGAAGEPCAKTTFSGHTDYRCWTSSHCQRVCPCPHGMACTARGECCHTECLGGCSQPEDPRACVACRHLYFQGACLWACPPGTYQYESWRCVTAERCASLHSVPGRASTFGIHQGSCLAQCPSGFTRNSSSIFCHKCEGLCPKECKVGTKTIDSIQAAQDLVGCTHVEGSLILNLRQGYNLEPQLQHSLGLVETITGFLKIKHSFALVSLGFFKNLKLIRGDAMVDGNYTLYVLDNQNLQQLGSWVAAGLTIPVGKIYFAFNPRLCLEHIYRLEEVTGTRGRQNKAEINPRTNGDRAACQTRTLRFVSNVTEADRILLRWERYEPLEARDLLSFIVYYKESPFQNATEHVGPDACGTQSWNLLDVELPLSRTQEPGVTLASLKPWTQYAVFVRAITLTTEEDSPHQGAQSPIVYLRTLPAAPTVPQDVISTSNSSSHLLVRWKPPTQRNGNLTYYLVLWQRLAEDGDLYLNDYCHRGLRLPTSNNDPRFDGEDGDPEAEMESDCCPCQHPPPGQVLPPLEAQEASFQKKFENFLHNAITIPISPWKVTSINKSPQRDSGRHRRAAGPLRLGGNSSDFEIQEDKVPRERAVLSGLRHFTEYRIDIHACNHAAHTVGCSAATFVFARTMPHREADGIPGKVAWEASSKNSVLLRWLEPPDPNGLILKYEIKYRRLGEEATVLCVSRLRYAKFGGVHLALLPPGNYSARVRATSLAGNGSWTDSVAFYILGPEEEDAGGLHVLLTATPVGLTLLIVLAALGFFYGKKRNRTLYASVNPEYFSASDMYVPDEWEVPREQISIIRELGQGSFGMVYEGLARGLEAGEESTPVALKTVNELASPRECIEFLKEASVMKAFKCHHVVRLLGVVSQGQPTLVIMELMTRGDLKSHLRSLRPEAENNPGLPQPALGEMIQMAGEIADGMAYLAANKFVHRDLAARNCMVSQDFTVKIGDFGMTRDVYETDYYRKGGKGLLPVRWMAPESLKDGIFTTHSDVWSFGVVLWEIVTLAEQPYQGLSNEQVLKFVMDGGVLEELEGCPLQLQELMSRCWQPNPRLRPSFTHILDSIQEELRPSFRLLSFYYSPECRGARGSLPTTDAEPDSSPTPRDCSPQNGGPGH
Chain of CAMK4 (human) (Q16566 whole entry, looked up): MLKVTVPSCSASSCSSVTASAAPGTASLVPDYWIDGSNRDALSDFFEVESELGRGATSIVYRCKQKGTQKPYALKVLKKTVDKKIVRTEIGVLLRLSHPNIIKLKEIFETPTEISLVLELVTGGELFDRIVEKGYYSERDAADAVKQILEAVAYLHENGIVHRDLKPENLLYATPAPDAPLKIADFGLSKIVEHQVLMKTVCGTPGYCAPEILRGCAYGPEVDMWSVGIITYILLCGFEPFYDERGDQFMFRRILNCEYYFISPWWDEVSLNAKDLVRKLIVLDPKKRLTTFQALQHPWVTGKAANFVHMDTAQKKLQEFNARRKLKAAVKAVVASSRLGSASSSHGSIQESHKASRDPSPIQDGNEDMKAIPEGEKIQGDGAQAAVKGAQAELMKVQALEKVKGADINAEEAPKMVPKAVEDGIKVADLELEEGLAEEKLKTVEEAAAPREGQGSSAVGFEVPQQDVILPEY
Chain of RPS6KA5 KD2 (human) (O75582 whole entry, looked up): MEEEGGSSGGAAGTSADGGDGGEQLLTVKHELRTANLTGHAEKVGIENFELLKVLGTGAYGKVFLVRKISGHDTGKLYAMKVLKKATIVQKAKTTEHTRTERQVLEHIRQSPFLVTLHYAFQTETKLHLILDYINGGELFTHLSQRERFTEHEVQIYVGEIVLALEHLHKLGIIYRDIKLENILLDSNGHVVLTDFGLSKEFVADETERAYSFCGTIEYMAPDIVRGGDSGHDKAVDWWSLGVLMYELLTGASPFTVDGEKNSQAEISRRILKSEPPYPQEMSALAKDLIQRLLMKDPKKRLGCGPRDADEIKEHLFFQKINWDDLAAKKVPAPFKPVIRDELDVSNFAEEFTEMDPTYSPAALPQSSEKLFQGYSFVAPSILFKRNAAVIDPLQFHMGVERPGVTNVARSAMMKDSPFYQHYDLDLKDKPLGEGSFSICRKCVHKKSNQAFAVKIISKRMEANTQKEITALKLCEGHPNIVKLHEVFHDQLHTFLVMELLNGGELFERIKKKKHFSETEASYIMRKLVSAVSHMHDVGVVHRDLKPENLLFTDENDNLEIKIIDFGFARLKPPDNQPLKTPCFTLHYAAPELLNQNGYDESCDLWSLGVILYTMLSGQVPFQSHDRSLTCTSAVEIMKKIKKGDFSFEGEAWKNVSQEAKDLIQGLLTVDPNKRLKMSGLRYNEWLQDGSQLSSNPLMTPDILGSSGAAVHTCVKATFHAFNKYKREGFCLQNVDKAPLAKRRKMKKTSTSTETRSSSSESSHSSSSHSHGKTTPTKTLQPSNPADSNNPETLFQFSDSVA
Chain of NEK6 (human) (Q9HC98 whole entry, looked up): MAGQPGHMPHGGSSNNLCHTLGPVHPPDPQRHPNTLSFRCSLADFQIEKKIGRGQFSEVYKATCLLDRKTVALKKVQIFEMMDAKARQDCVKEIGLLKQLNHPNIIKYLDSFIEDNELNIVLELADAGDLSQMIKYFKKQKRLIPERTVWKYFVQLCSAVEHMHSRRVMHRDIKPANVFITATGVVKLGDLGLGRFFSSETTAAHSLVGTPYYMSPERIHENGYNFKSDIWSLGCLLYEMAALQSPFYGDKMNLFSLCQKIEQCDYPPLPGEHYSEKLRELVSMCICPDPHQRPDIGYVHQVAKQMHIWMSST

How did the residual activity [1] turn out when O=C1Nc2ccccc2/C1=C1\Nc2ccccc2\C1=N/O was run?
Its residual activity is 67%.

What about the residual activity [2] of the same compound?
The residual activity was 98.9%.

What about the residual activity [3] of the same compound?
The residual activity was 108%.

And the residual activity [4]?
Its residual activity is 98.2%.

What about the residual activity [5] of the same compound?
Its residual activity is 87.5%.

What about the residual activity [6] of the same compound?
Its residual activity is 86.3%.

And the residual activity [7]?
Its residual activity is 95.4%.

And the residual activity [8]?
Its residual activity is 45.1%.

And the residual activity [9]?
Its residual activity is 94.4%.

And the residual activity [10]?
The residual activity was 97.6%.

And the residual activity [11]?
Its residual activity is 103%.

And the residual activity [12]?
The residual activity was 97.4%.

What about the residual activity [13] of the same compound?
Its residual activity is 98%.

What about the residual activity [14] of the same compound?
Its residual activity is 89.3%.

What about the residual activity [15] of the same compound?
Its residual activity is 40.6%.

What about the residual activity [16] of the same compound?
Its residual activity is 87.1%.

And the residual activity [17]?
Its residual activity is 19.1%.

What about the residual activity [18] of the same compound?
The residual activity was 96.6%.

What about the residual activity [19] of the same compound?
Its residual activity is 24.3%.

And the residual activity [20]?
Its residual activity is 95%.

And the residual activity [21]?
Its residual activity is 67.3%.

What about the residual activity [22] of the same compound?
Its residual activity is 92.2%.

And the residual activity [23]?
The residual activity was 85.9%.

And the residual activity [24]?
The residual activity was 97.7%.

And the residual activity [25]?
The residual activity was 101%.

And the residual activity [26]?
The residual activity was 23.8%.

And the residual activity [27]?
Its residual activity is 93%.

And the residual activity [28]?
Its residual activity is 100%.

And the residual activity [29]?
The residual activity was 72.6%.

What about the residual activity [30] of the same compound?
The residual activity was 90.9%.

And the residual activity [31]?
The residual activity was 96.7%.

What about the residual activity [32] of the same compound?
The residual activity was 96.5%.

What about the residual activity [33] of the same compound?
Its residual activity is 63.4%.

And the residual activity [34]?
The residual activity was 59.3%.

And the residual activity [35]?
The residual activity was 102%.

And the residual activity [36]?
The residual activity was 89.8%.

And the residual activity [37]?
Its residual activity is 92.9%.

What about the residual activity [38] of the same compound?
The residual activity was 53%.

What about the residual activity [39] of the same compound?
The residual activity was 65.6%.

What about the residual activity [40] of the same compound?
Its residual activity is 35.7%.

And the residual activity [41]?
Its residual activity is 105%.

What about the residual activity [42] of the same compound?
The residual activity was 21.3%.

With CCn1cnc2c(Nc3cccc(Cl)c3)nc(N[C@@H]3CCCC[C@@H]3N)nc21 as the compound, how does the residual activity [1] read?
The residual activity was 87.8%.

What about the residual activity [2] of the same compound?
Its residual activity is 97.5%.

What about the residual activity [3] of the same compound?
The residual activity was 89.2%.

What about the residual activity [4] of the same compound?
The residual activity was 101%.

And the residual activity [5]?
Its residual activity is 69.9%.

And the residual activity [6]?
Its residual activity is 103%.

What about the residual activity [7] of the same compound?
Its residual activity is 95.4%.

And the residual activity [8]?
Its residual activity is 35.4%.

What about the residual activity [9] of the same compound?
The residual activity was 105%.

And the residual activity [10]?
Its residual activity is 91.7%.

What about the residual activity [11] of the same compound?
Its residual activity is 106%.

And the residual activity [12]?
Its residual activity is 103%.

What about the residual activity [13] of the same compound?
Its residual activity is 88.3%.

What about the residual activity [14] of the same compound?
The residual activity was 94.2%.

And the residual activity [15]?
Its residual activity is 92.4%.

What about the residual activity [16] of the same compound?
The residual activity was 110%.

And the residual activity [17]?
The residual activity was 54.9%.

What about the residual activity [18] of the same compound?
The residual activity was 91.7%.

What about the residual activity [19] of the same compound?
Its residual activity is 110%.

What about the residual activity [20] of the same compound?
Its residual activity is 96.8%.

What about the residual activity [21] of the same compound?
Its residual activity is 74.3%.

What about the residual activity [22] of the same compound?
The residual activity was 102%.

What about the residual activity [23] of the same compound?
The residual activity was 70.8%.

And the residual activity [24]?
The residual activity was 109%.

What about the residual activity [25] of the same compound?
Its residual activity is 98.3%.

What about the residual activity [26] of the same compound?
The residual activity was 13.2%.

And the residual activity [27]?
Its residual activity is 85.4%.

What about the residual activity [28] of the same compound?
The residual activity was 107%.

And the residual activity [29]?
Its residual activity is 99.6%.

What about the residual activity [30] of the same compound?
The residual activity was 100%.

And the residual activity [31]?
Its residual activity is 93.9%.

What about the residual activity [32] of the same compound?
The residual activity was 90.6%.

What about the residual activity [33] of the same compound?
Its residual activity is 98.6%.

What about the residual activity [34] of the same compound?
The residual activity was 82.5%.

And the residual activity [35]?
Its residual activity is 100%.

And the residual activity [36]?
The residual activity was 89.1%.

What about the residual activity [37] of the same compound?
Its residual activity is 94.1%.

And the residual activity [38]?
Its residual activity is 105%.

What about the residual activity [39] of the same compound?
The residual activity was 90.4%.

What about the residual activity [40] of the same compound?
The residual activity was 90.7%.

And the residual activity [41]?
The residual activity was 123%.

What about the residual activity [42] of the same compound?
The residual activity was 105%.

What does the source list for CC(C)[C@H](CO)Nc1nc(Nc2cc(N)cc(Cl)c2)c2ncn(C(C)C)c2n1?
residual activity [1]: 103%; residual activity [2]: 99.2%; residual activity [3]: 97.1%; residual activity [4]: 84.2%; residual activity [5]: 93.3%; residual activity [6]: 85.8%; residual activity [7]: 69.4%; residual activity [8]: 7.03%; residual activity [9]: 96.7%; residual activity [10]: 97.3%; residual activity [11]: 101%; residual activity [12]: 97.4%; residual activity [13]: 111%; residual activity [14]: 62.1%; residual activity [15]: 47.8%; residual activity [16]: 70.8%; residual activity [17]: 7.81%; residual activity [18]: 95.4%; residual activity [19]: 57.9%; residual activity [20]: 80.2%; residual activity [21]: 88.8%; residual activity [22]: 111%; residual activity [23]: 58.4%; residual activity [24]: 102%; residual activity [25]: 95.8%; residual activity [26]: 0.133%; residual activity [27]: 79.3%; residual activity [28]: 87.5%; residual activity [29]: 98.1%; residual activity [30]: 89.4%; residual activity [31]: 95.5%; residual activity [32]: 105%; residual activity [33]: 101%; residual activity [34]: 33%; residual activity [35]: 100%; residual activity [36]: 104%; residual activity [37]: 96.3%; residual activity [38]: 80.2%; residual activity [39]: 99.9%; residual activity [40]: 70.8%; residual activity [41]: 130%; residual activity [42]: 80.5%

How did the residual activity [1] turn out when COc1cc2ncc(-c3ccccc3)nc2cc1OC was run?
Its residual activity is 91.8%.

And the residual activity [2]?
Its residual activity is 93.4%.

And the residual activity [3]?
Its residual activity is 94.3%.

What about the residual activity [4] of the same compound?
The residual activity was 114%.

And the residual activity [5]?
The residual activity was 104%.

And the residual activity [6]?
The residual activity was 106%.

What about the residual activity [7] of the same compound?
The residual activity was 93.5%.

What about the residual activity [8] of the same compound?
The residual activity was 96.1%.

And the residual activity [9]?
The residual activity was 84.7%.

And the residual activity [10]?
The residual activity was 113%.

And the residual activity [11]?
Its residual activity is 106%.

And the residual activity [12]?
The residual activity was 95.2%.

What about the residual activity [13] of the same compound?
The residual activity was 101%.

And the residual activity [14]?
The residual activity was 105%.

And the residual activity [15]?
Its residual activity is 93.2%.

What about the residual activity [16] of the same compound?
Its residual activity is 82.8%.

And the residual activity [17]?
The residual activity was 85.4%.

And the residual activity [18]?
The residual activity was 95.6%.

What about the residual activity [19] of the same compound?
The residual activity was 93.9%.

What about the residual activity [20] of the same compound?
The residual activity was 101%.

And the residual activity [21]?
The residual activity was 83.6%.

And the residual activity [22]?
The residual activity was 93.8%.

What about the residual activity [23] of the same compound?
Its residual activity is 86.4%.

And the residual activity [24]?
The residual activity was 85.7%.

What about the residual activity [25] of the same compound?
Its residual activity is 88.1%.

And the residual activity [26]?
Its residual activity is 95.8%.

What about the residual activity [27] of the same compound?
Its residual activity is 107%.

What about the residual activity [28] of the same compound?
Its residual activity is 102%.

And the residual activity [29]?
The residual activity was 87.5%.

What about the residual activity [30] of the same compound?
The residual activity was 83.1%.

And the residual activity [31]?
The residual activity was 85.6%.

What about the residual activity [32] of the same compound?
Its residual activity is 87.9%.

And the residual activity [33]?
Its residual activity is 91.5%.

What about the residual activity [34] of the same compound?
The residual activity was 98%.

What about the residual activity [35] of the same compound?
The residual activity was 90.5%.

What about the residual activity [36] of the same compound?
The residual activity was 93.1%.

And the residual activity [37]?
The residual activity was 95.7%.

And the residual activity [38]?
Its residual activity is 97.8%.

What about the residual activity [39] of the same compound?
Its residual activity is 92.1%.

And the residual activity [40]?
The residual activity was 99.2%.

And the residual activity [41]?
The residual activity was 164%.

And the residual activity [42]?
The residual activity was 90.3%.
